According to US6884589B2, “Model for myeloid cell growth, differentiation and disease” (Regents of the University of California, priority 2000, dated 2005):

Legend:
Assay type in all cases: cell-based, murine
Settings in all cases: 10 μM atRA for 4 days
[1] = test system: parental ECoM-G cells; assay: atRA treatment of parental ECoM-G cells
[2] = test system: PLZF/RARα ECoM-G derivatives; assay: atRA treatment of ECoM-G clones arrested in differentiation by PLZF/RARα
Method: (§1) Retroviral infection of ECoM-G cells with heterologous oncoproteins. Helper-free retrovirus was generated for wild-type E2a-Pbx1, Hoxa7, Hoxa9, Nup98/HoxA9, Hoxb8, AML1/ETO, PML/RARα and PLZF/RARα constructs cloned into the multiple cloning site of the MSCVneo and MSCVpac retroviral vectors. ECoM-G cells (250,000) from 3 different clones were transduced by spinoculation (as described above) and selected 5 days in G418 (1 mg/ml) or puromycin (1 μg/ml). The cells were washed and plated in media without estrogen. Only those cells that were capable of continued and indefinite proliferation in the absence of estrogen were expanded to generate RNA for Northern analysis.
Analysis of differentiation arrest induced by heterologous oncoproteins in E2a-Pbx1-ER expressing cells. The ECoM cells provide a system in which to dissect the mechanisms of action of oncogenes. Heterologous oncoproteins were introduced into ECoM-G clones by retroviral infection.

[3] = test system: PML/RARα ECoM-G derivatives; assay: atRA treatment of ECoM-G clones arrested in differentiation by PML/RARα
Method: as §1
Analysis of differentiation arrest induced by heterologous oncoproteins in E2a-Pbx1-ER expressing cells. The ECoM cells provide a system in which to dissect the mechanisms of action of oncogenes. Heterologous oncoproteins were introduced into ECoM-G clones by retroviral infection. Expression was verified by immunoblot assay and cells were assayed for the ability to re-establish differentiation arrest following estrogen withdrawal. AML1/ETO, PML/RARα, Hoxa9, Hoxb8 and wild type E2a-Pbx1 prevented granulocytic differentiation of specific clones permitting their continued and indefinite proliferation in the presence of GM-CSF. […]

Structure (SMILES): CC1=C(/C=C/C(C)=C/C=C/C(C)=C/C(=O)O)C(C)(C)CCC1 [atRA, all-trans-RA]
- response to atRA [1]: completely unresponsive
- response to atRA (proliferation, differentiation) [2]: stopped proliferating and underwent quantitative granulocytic differentiation
- response to atRA (proliferation, differentiation) [3]: stopped proliferating and underwent quantitative granulocytic differentiation
